Source: patent EP2364976B1, “S1P receptor modulating compounds and use thereof” (EPIX Pharmaceuticals, Inc., priority 2007, dated 2007)
Values joined by “and” are separate entries in the source; they are usually repeats but may differ in a detail not shown here. Equal entries are not always repeated.

Target: T1, hS1P1 (Homo sapiens, UniProt P21453)
T1 construct: expressed in transfected cells
Experiment: hS1P1 EC50 (S1P receptor Ca2+ flux protocol, FLIPR, CHO K1 Gqi5 cells)
Assay type: cell-based
Conditions: several values per compound = repeat determinations as printed
In short: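 Calcium flux (FLIPR) in CHO K1 cells stably expressing Gqi5 and N-terminally V5-tagged human S1P1, loaded with calcium dye 90 min at RT. Peak fluorescence recorded 90 s after compound addition (10-point 3x dilution, 0.25% DMSO), normalized to 200 nM S1P (100%) and buffer (0%); EC50 from 4-parameter fit.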

T1 sequence (P21453 whole entry): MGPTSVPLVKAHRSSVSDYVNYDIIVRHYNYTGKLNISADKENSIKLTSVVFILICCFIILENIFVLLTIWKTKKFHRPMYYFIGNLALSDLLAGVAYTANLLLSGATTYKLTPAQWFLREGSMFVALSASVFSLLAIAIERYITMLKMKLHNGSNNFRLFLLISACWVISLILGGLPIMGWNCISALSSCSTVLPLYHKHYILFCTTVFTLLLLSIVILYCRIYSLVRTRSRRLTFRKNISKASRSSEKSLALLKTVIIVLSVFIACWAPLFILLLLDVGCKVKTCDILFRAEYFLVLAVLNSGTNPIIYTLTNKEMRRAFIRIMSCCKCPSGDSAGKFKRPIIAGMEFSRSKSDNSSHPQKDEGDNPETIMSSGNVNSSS

| EC50 | Structure (SMILES) |
| --- | --- |
| 1860 nM | O=C(O)C1CN(Cc2ccc(-c3cc4cc(Cc5ccccc5)ccc4o3)c(F)c2)CCO1 (stereo not drawn) [Reference Compound 54, 4-((4-(5-benzylbenzofuran-2-yl)-3-fluorophenyl)methyl)morpholine-2-carboxylic acid] |
| 1000 nM and 1900 nM and 196 nM | COc1cc(CN2CC(C(=O)O)C2)ccc1-c1cc2cc(Cc3ccccc3)ccc2o1 [Reference Compound 33, 1-((4-(5-benzylbenzofuran-2-yl)-3-methoxyphenyl)methyl)azetidine-3-carboxylic acid] |
| 160 nM and 38 nM | O=C(O)C1CN(Cc2ccc(-c3cc4cc(Cc5ccccc5)ccc4o3)c(F)c2)C1 [Reference Compound 15, 1-((4-(5-Benzylbenzofuran-2-yl)-3-fluorophenyl)methyl)azetidine-3-carboxylic acid] |
| 2090 nM | Fc1cc(CN2CC(c3nn[nH]n3)C2)ccc1-c1cc2cc(Cc3ccccc3)ccc2o1 [Reference Compound 78, 5-(1-(4-(5-Benzylbenzofuran-2-yl)-3-fluorobenzyl)azetidin-3-yl)-2H-tetrazole] |
| 169 nM | O=C(O)C1CN(Cc2ccc(-c3cc4cc(Cc5cccc(F)c5)ccc4o3)c(F)c2)C1 [Reference Compound 76, 1-(3-Fluoro-4-(5-(3-fluorobenzyl)benzofuran-2-yl)benzyl)azetidine-3-carboxylic acid] |
| 409 nM | O=C(O)C1CN(Cc2ccc(-c3cc4nc(Cc5ccccc5)ccc4o3)c(F)c2)C1 [Reference Compound 109, 1-((4-(5-Benzylfuro[3,2-b]pyridin-2-yl)-3-fluorophenyl)methyl)azetidine-3-carboxylic acid] |

The remaining lines, values behind:

| Structure (SMILES) | EC50 |
| --- | --- |
| O=C(O)C1CN(Cc2ccc(-c3cc4cc(N5CCOCC5)ccc4o3)c(F)c2)C1 [Reference Compound 53, 1-((3-fluoro-4-(5-morpholinobenzofuran-2-yl)phenyl)methyl)azetidine-3-carboxylic acid] | 2090 nM |
| O=C(O)C1CN(Cc2ccc(-c3cc4cc(Oc5ccccc5)ccc4o3)c(F)c2)C1 [Reference Compound 77, 1-(3-Fluoro-4-(5-phenoxybenzofuran-2-yl)benzyl)azetidine-3-carboxylic acid] | 13 nM |
| O=C(O)C1CN(Cc2ccc(-c3nc4cc(Cc5ccccc5)ccc4o3)cc2)C1 [Reference Compound 113, 1-((4-(5-Benzylbenzo[d]oxazol-2-yl)phenyl)methyl)azetidine-3-carboxylic acid] | 364 nM |
| CCCCOc1ccc2cc(-c3ccc(CN4CC(C(=O)O)C4)cc3)oc2c1 [Reference Compound 21, 1-((4-(6-Butoxybenzofuran-2-yl)phenyl)methyl)azetidine-3-carboxylic acid] | 2000 nM |
| O=C(O)C1CN(Cc2ccc(-c3cc4cc(COCC5CC5)ccc4o3)c(F)c2)C1 [Reference Compound 66] | 75 nM |
| O=C(O)CCNC1Cc2ccc(-c3cc4cc(Cc5ccccc5)ccc4o3)cc2C1 (stereo not drawn) [Reference Compound 45, 3-(5-(5-benzylbenzofuran-2-yl)-2,3-dihydro-1H-inden-2-ylamino)-propanoic acid] | 807 nM |
| O=C(O)C1CN(Cc2ccc(-c3cc4cc(N5CCCCC5)ccc4o3)c(F)c2)C1 [Reference Compound 31, 1-(3-fluoro-4-(5-(piperidin-1-yl)benzofuran-2-yl)benzyl)azetidine-3-carboxylic acid] | 860 nM and 307 nM |
| O=C(O)CCN1CCc2cc(-c3cc4cc(Cc5ccccc5)ccc4o3)ccc2C1 [Reference Compound 29, 3-(6-(5-benzylbenzofuran-2-yl)-3,4-dihydroisoquinolin-2(1H)-yl)propanoic acid] | 160 nM and 261 nM |
| CCCCOc1ccc2oc(-c3ccc4c(c3)CCN(CCC(=O)O)C4)cc2c1 [Reference Compound 44, 3-(6-(5-butoxybenzofuran-2-yl)-3,4-dihydroisoquinolin-2(1H)-yl)propanoic acid] | 4440 nM |
